Values quoted from earlier work, collected in patent US12201639B2, “Aqueous oral pharmaceutical suspension compositions” (ReveraGen BioPharma, Inc., priority 2019, dated 2025).

Tests used:
glucocorticoid receptor = molecular target: T1, glucocorticoid receptor (Homo sapiens, UniProt P04150); conditions: pre-clinical data
T1 sequence (P04150 1-777): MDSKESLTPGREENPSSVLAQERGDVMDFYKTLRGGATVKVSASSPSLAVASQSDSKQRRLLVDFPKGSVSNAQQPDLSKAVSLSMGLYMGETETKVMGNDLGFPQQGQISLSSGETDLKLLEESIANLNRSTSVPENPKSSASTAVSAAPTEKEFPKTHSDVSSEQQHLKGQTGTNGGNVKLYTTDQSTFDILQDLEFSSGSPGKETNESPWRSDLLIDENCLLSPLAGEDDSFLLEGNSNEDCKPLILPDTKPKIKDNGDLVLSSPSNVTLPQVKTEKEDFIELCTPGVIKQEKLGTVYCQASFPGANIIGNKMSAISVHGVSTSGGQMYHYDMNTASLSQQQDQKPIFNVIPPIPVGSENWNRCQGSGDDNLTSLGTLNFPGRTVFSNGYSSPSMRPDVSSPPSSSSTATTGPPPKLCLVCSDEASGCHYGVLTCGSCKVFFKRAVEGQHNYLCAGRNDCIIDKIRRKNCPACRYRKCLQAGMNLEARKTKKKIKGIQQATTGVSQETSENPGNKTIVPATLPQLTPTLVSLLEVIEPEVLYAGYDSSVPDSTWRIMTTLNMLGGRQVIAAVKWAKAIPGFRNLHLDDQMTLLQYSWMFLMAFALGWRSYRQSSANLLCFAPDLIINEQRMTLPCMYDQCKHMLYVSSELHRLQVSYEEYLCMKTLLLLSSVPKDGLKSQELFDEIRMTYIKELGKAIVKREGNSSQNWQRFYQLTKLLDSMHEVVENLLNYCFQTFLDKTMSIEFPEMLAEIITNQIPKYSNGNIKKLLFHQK

[1] = test system: mouse models of inflammatory states; conditions: compared with prednisolone

binding to the glucocorticoid receptor (glucocorticoid receptor): binds potently
SMILES: C[C@@H]1C[C@H]2[C@@H]3CCC4=CC(=O)C=C[C@]4(C)C3=CC[C@]2(C)[C@@]1(O)C(=O)CO [vamorolone, 17α,21-dihydroxy-16α-methylpregna-1,4,9 (11)-triene-3,20-dione]
side effect profiles (growth stunting, bone fragility) in mouse models [1]: dramatically improves side effect profiles
